{"source": "patent EP2242752B1", "about": "“[…] IMIDAZOLES AS HEPATITIS C VIRUS INHIBITORS” (Bristol-Myers Squibb Company, priority 2008, dated 2009)", "tested_on": "HCV 1b genotype", "assay": "HCV Replicon assay (HCV 16-377-neo replicon cells)", "format": "cell-based", "details": "Hepatitis C virus; HCV 1b genotype replicon cells; read-out: EC50 ranges against HCV 1b", "summary_of_the_method": "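Inhibition measured in HCV 16-377-neo replicon cells, alongside replicon cells carrying the NS5A Y2065H resistance mutation.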", "data": [{"smiles": "COC(=O)N[C@H](C(=O)N1CC(F)(F)C[C@H]1c1nc(-c2ccc(-c3ccc(-c4c[nH]c([C@@H]5CCCN5C(=O)[C@@H](NC(=O)OC)C(C)C)n4)c(F)c3)cc2)c[nH]1)C(C)C", "note": "[Example J14e, methyl ((1S)-1-(((2S)-4,4-difluoro-2-(4-(3'-fluoro-4'-(2-((2S)-1-((2S)-2-((methoxycarbonyl)amino)-3-methylbutanoyl)-2-pyrrolidinyl)-1H-imidazol-4-yl)-4-biphenylyl)-1H-imidazol-2-yl)-1-pyrrolidinyl)carbonyl)-2-methylpropyl)carba mate]", "values": [{"measurement": "EC50", "result": "0.001 to 0.999", "unit": "nM"}]}, {"smiles": "Cc1nc([C@@H]2CCCN2C(=O)[C@@H](c2ccccc2)N(C)C)[nH]c1-c1ccc(-c2ccc(-c3[nH]c([C@@H]4CCCN4C(=O)[C@@H](c4ccccc4)N(C)C)nc3C)cc2)cc1", "note": "[Example E5g, (1R,1'R)-2,2'-(4,4'-biphenyldiylbis((4-methyl-1H-imidazole-5,2-diyl)(2S)-2,1-pyrrolidinediyl))bis (N,N-dimethyl-2-oxo-1-phenylethanamine)]", "values": [{"measurement": "EC50", "result": "0.001 to 0.999", "unit": "nM"}]}, {"smiles": "CC[C@H](NC(=O)OC)C(=O)N1[C@@H]2C[C@@H]2C[C@H]1c1nc(-c2ccc(-c3ccc(-c4c[nH]c([C@@H]5C[C@H]6C[C@H]6N5C(=O)[C@H](CC)NC(=O)OC)n4)cc3)cc2)c[nH]1", "note": "[Example M133, dimethyl (4,4'-biphenyldiylbis(1H-imidazole-4,2-diyl(1R,3S,5R)-2-azabicyclo[3.1.0]hexane-3,2-diyl((2S)-1-oxo-1,2-butanediyl)))biscarbamate]", "values": [{"measurement": "EC50", "result": "0.001 to 0.999", "unit": "nM"}]}, {"smiles": "COC(=O)N[C@H](C(=O)N1[C@@H]2C[C@@H]2C[C@H]1c1nc(-c2ccc(-c3ccc(-c4c[nH]c([C@@H]5C[C@H]6C[C@H]6N5C(=O)[C@@H](NC(=O)OC)C5CC5)n4)cc3)cc2)c[nH]1)C1CC1", "note": "[Example M135, dimethyl (4,4'-biphenyldiylbis(1H-imidazole-4,2-diyl(1R,3S,5R)-2-azabicyclo[3.1.0]hexane-3,2-diyl((1S)-1-cyclopropyl-2-oxo-2,1-ethanediyl)))biscarbamate]", "values": [{"measurement": "EC50", "result": "0.001 to 0.999", "unit": "nM"}]}, {"smiles": "COC(=O)N[C@@H](C(=O)N1[C@@H]2C[C@H]2C[C@H]1c1nc(-c2ccc(-c3ccc(-c4c[nH]c([C@@H]5C[C@@H]6C[C@H]6N5C(=O)[C@H](NC(=O)OC)c5ccccc5)n4)cc3)cc2)c[nH]1)c1ccccc1", "note": "(mixture of isomers) [Example M137, dimethyl (4,4'-biphenyldiylbis(1H-imidazole-4,2-diyl(1R,3S,SR)-2-azabicyclo[3.1.0]hexane-3,2-diyl((1R)-2-oxo-1-phenyl-2,1-ethanediyl)))biscarbamate]", "values": [{"measurement": "EC50", "result": "0.001 to 0.999", "unit": "nM"}]}, {"smiles": "COC(=O)N[C@H](C(=O)N1CCC[C@H]1c1nc(-c2ccc(-c3ccc(-c4[nH]c([C@@H]5CCCN5C(=O)[C@@H](NC(=O)OC)[C@@H](C)OC)nc4C)cc3)cc2)c[nH]1)[C@@H](C)OC", "note": "[Example E5f, methyl ((1S,2R)-2-methoxy-1-(((2S)-2-(4-(4'-(2-((2S)-1-(N-(methoxycarbonyl)-O-methyl-L-threonyl)-2-pyrrolidinyl)-4-methyl-1H-imidazol-5-yl)-4-biphenylyl)-1H-imidazol-2-yl)-1-pyrrolidinyl)carbonyl)propyl)carbamate]", "values": [{"measurement": "EC50", "result": "0.001 to 0.999", "unit": "nM"}]}, {"smiles": "CCCc1[nH]c([C@@H]2CCCN2C(=O)[C@@H](c2ccccc2)N(CC)CC)nc1-c1ccc(-c2ccc(-c3c[nH]c([C@@H]4CCCN4C(=O)[C@@H](c4ccccc4)N(CC)CC)n3)cc2)cc1", "note": "[Example J14c.1, (1R)-2-((2S)-2-(4-(4'-(2-((2S)-1-((2R)-2-(diethylamino)-2-phenylacetyl)-2-pyrrolidinyl)-1H-imidazol-4-yl)-4-biphenylyl)-5-propyl-1H-imidazol-2-yl)-1-pyrrolidinyl)-N,N-diethyl-2-oxo-1-phenylethanamine]", "values": [{"measurement": "EC50", "result": "0.001 to 0.999", "unit": "nM"}]}, {"smiles": "COC(=O)N[C@H](C(=O)N1CCC[C@H]1c1nc(-c2ccc(-c3ccc(-c4[nH]c([C@@H]5CCCN5C(=O)[C@@H](NC(=O)OC)[C@@H](C)OC)nc4CC(OC)OC)cc3)cc2)c[nH]1)[C@@H](C)OC", "note": "[Example J14a, methyl ((1S,2R)-1-(((2S)-2-(4-(2,2-dimethoxyethyl)-5-(4'-(2-((2S)-1-(N-(methoxycarbonyl)-O-methyl-L-threonyl)-2-pyrrolidinyl)-1H-imidazol-4-yl)-4-biphenylyl)-1H-imidazol-2-yl)-1-pyrrolidinyl)carbonyl)-2-methoxypropyl)car bamate]", "values": [{"measurement": "EC50", "result": "0.001 to 0.999", "unit": "nM"}]}, {"smiles": "COC(=O)NCC(=O)N1[C@@H]2C[C@@H]2C[C@H]1c1ncc(-c2ccc(-c3ccc(-c4cnc([C@@H]5C[C@H]6C[C@H]6N5C(=O)CNC(=O)OC)[nH]4)cc3)cc2)[nH]1", "note": "(mixture of isomers) [Example M134, methyl (2-((1R,3S,SR)-3-(4-(4'-(2-((1R,3S,SR)-2-(((methoxycarbonyl)amino)acetyl)-2-azabicyclo[3.1.0]hex-3-yl)-1H-imidazol-4-yl)-4-biphenylyl)-1H-imidazol-2-yl)-2-azabicyclo[3.1.0]hex-2-yl)-2-oxoethyl) carbamate]", "values": [{"measurement": "EC50", "result": "1 to 99", "unit": "nM"}]}]}
